Data taken from patent publication US11873292B2, “Trans-indoline cyclopropylamine chemical compound, and method for preparation, pharmaceutical composition, and use thereof” (Shanghai Institute of Materia Medica, Chinese Academy of …, priority 2016, dated 2024).
Read-outs that look alike come from different tables or passages of the source.

How the values were obtained:
[1] = molecular target: Human recombinant LSD1 (Homo sapiens (Human), UniProt O60341); experiment: LSD1 in vitro activity assay (LANCE Ultra LSD1 Histone H3-Lysine 4 Demethylase Assay); type: biochemical; settings: LSD1 inhibition
[2] = test system: Leukemia cell line MV4-11; experiment: Growth-inhibitory activity by MTS method; type: cell-based; settings: Homo sapiens, MV4-11 cells
Text: MTS assay was used to detect the growth inhibitory effect of tested compounds on leukemia cell MV (4:11), the principle of which was that succinate dehydrogenase in mitochondria in living cells can reduce exogenous thiazole blue to insoluble Blue crystalline Formazan.
MATERIALS: Leukemia cell line MV4-11: pediatric acute lymphocytic leukemia, immunological double phenotype, AF4-MLL fusion t (4,11), is a cell growth inhibitory cell line of LSD1 inhibitor (Cancer cell. 2012, 17; 21(4): 473-487).
1. MV4-11 cells in the logarithmic growth phase were taken, accurately counted 16000 cells/mL, and the diluted cell solution was added to a 96-well plate at 90 μL per well.
2. Fresh medium was taken and sequentially added to a 96-well plate with cell fluid, 90 μL per well.
3. In the compound plate, the compound to be tested at a concentration of 10 mM and the positive compounds ORY-1001 and GSK2879552 were taken and subjected to a 3-fold concentration gradient dilution with DMSO, 8 points for each.
4. 2 μL of the diluted compound was separately added to a 96-well plate containing 98 μL of blank medium, and DMSO group was added with 2 μL of DMSO into 98 μL of blank medium, and mixed for use.
5. The compound homogeneously mixed with the medium was separately added to a 96-well plate in which cells were plated in triplicate, 20 μL per well, and well mixed. In the blank group, 200 μL of IMDM medium was added, and in the DMSO group, 180 μL of the cell-containing medium in DMSO diluted with the medium was added.
6. […]
7. After 10 days, MTS was added and the values were read after 2.5 h of incubation.

[3] = molecular target: human recombinant MAOB (Homo sapiens (Human), UniProt P27338); experiment: MAOB in vitro activity experiment (MAO-Glo); type: biochemical
[4] = molecular target: Human recombinant MAOA (Homo sapiens (Human), UniProt P21397); experiment: MAOA in vitro activity experiment (MAO-Glo); type: biochemical
Human recombinant MAOA, sequence (P21397 whole entry): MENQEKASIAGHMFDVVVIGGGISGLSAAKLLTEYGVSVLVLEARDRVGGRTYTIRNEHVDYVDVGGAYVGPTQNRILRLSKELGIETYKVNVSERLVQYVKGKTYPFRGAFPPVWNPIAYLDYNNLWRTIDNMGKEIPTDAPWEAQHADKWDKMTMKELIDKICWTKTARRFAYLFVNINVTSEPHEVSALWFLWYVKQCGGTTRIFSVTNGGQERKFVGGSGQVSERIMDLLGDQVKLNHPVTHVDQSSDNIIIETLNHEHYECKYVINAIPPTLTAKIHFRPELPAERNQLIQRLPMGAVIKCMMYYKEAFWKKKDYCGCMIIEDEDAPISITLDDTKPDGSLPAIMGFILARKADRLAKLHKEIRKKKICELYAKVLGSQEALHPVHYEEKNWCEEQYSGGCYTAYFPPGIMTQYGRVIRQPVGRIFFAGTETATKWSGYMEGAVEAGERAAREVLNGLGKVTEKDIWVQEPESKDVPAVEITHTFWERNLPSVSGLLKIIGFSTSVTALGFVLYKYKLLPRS

human recombinant MAOB, sequence (P27338 whole entry): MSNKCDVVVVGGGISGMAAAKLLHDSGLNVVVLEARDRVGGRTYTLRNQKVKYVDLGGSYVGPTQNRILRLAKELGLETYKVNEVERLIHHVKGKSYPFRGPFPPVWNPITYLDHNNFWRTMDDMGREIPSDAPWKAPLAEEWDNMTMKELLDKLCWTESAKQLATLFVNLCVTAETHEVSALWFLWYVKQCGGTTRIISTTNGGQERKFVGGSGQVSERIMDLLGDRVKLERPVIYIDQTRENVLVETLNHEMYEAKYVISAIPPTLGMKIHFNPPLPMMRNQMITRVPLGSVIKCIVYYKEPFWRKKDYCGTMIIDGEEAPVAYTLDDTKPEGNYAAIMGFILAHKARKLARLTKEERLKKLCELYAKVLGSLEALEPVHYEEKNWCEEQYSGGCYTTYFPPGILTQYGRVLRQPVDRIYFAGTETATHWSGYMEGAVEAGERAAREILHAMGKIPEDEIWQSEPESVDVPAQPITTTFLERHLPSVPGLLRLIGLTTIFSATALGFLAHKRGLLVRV

SMILES	melting point [°C]	IC50 [1] [nM]	IC50 ([2]; 3 D, read-out: MTS 3 D) [nM]	IC50 ([2]; 10 D, read-out: MTS 10 D) [nM]	IC50 [3] [µM]	IC50 [4] [µM]
N[C@@H]1C[C@H]1c1ccc2c(c1)CCN2S(=O)(=O)c1ccccc1 (relative stereo) [Compound A1, Trans-2-(1-(phenylsulfonyl)indolin-5-yl)cyclopropylamine]	190 to 193	1790 ± 88.4				
O=S(=O)(c1ccccc1)N1CCc2cc([C@@H]3C[C@H]3NC3CCNCC3)ccc21 (relative stereo) [Compound A15, trans-N-(4-piperidinyl)-2-(1-(phenylsulfonyl)indolin-5-yl)cyclopropylamine]		22.8 ± 0.37	3400 ± 1640	180 ± 490	> 100	> 100
CC(C)(C)OC(=O)N1CCC(CN[C@@H]2C[C@H]2c2ccc3c(c2)CCN3S(=O)(=O)c2ccccc2)CC1 (relative stereo) [Compound A27, Trans-tert-butyl 4-((2-(1-(phenylsulfonyl)indolin-5-yl)cyclopropylamino)methyl)piperidine-1-carboxylate]	60 to 61	71.3 ± 4.3			> 100	> 100
O=C(OCc1ccccc1)N1CCC(CN[C@@H]2C[C@H]2c2ccc3c(c2)CCN3S(=O)(=O)c2ccccc2)CC1 (relative stereo) [Compound A28, Trans-benzyl 4-((2-(1-(phenylsulfonyl)indolin-5-yl)cyclopropylamino)methyl)piperidine-1-carboxylate]	90 to 92	265 ± 80.8				
CC(C)(C)OC(=O)N1CCC(C(=O)N[C@@H]2C[C@H]2c2ccc3c(c2)CCN3S(=O)(=O)c2ccccc2)CC1 (relative stereo) [Compound A29, Trans-tert-butyl 4-(2-(1-(phenylsulfonyl)indolin-5-yl)cyclopropylcarbamoyl)piperidine-1-carboxylate]	146 to 148	1690 ± 449				
O=S(=O)(c1ccc(C(F)(F)F)cc1)N1CCc2cc([C@@H]3C[C@H]3NCC3CCNCC3)ccc21 (relative stereo) [Compound A34, trans-N-(piperidin-4-ylmethyl)-2-(1-(4-(trifluoromethyl)benzenesulfonyl)indolin-5-yl)cyclopropylamine]	217 to 221	43.3 ± 5.09			> 100	> 100
CCCS(=O)(=O)N1CCc2cc([C@@H]3C[C@H]3NCC3CCNCC3)ccc21 (relative stereo) [Compound A41, trans-N-(piperidin-4-ylmethyl)-2-(1-(propylsulfonyl)indolin-5-yl)cyclopropylamine]	187 to 191				> 100	> 100
O=C(c1ccc(-c2ccccc2)cc1)N1CCc2cc([C@@H]3C[C@H]3NCC3CCNCC3)ccc21 (relative stereo) [Compound A47, Trans-biphenyl-4-yl(5-(2-(piperidin-4-ylmethylamino)cyclopropyl)indolin-1-yl)methanone]	179 to 180	10.2 ± 1.59			7.33 ± 0.11	> 100
O=C(c1cccc(C(F)(F)F)c1)N1CCc2cc([C@@H]3C[C@H]3NCC3CCNCC3)ccc21 (relative stereo) [Compound A48, Trans-(5-(2-(piperidin-4-ylmethylamino)cyclopropyl)indolin-1-yl)(3-(trifluoromethyl)phenyl) methanone]	230 to 232	25.57 ± 0.11			42.6 ± 0.78	> 100
O=C(OCc1ccccc1)N1CCc2cc([C@@H]3C[C@H]3NCC3CCNCC3)ccc21 (relative stereo) [Compound A50, Trans-benzyl-5-(2-(piperidin-4-ylmethylamino)cyclopropyl)Indoline-1-carboxylate]	215 to 218	35.3 ± 3.48			10.7 ± 1.22	> 100
COCCC(=O)N1CCc2cc([C@@H]3C[C@H]3NCC3CCNCC3)ccc21 (relative stereo) [Compound A56, Trans-3-methoxy-1-(5-(2-(piperidin-4-ylmethylamino)cyclopropyl)indolin-1-yl)propan-1-one]		26.9 ± 22.1			> 100	> 100
O=C(C1CCCCC1)N1CCc2cc([C@@H]3C[C@H]3NCC3CCNCC3)ccc21 (relative stereo) [Compound A59, Trans-cyclohexyl (5-(2-(piperidin-4-ylmethylamino)cyclopropyl)indolin-1-yl)methanone]	166 to 168					
CC(C)(C)OC(=O)c1ccc(CN2CCC(CNC3CC3c3ccc4c(c3)CCN4S(=O)(=O)c3ccccc3)CC2)cc1 (stereo not drawn) [Compound A25, Trans-tert-butyl 4-((4-(2-(1-(phenylsulfonyl))indolin-5-yl)cyclopropylamino)methyl)piperidin-1-yl)methyl) benzoate]	62 to 65	534 ± 384				
O=C(O)c1ccc(CN2CCC(CNC3CC3c3ccc4c(c3)CCN4S(=O)(=O)c3ccccc3)CC2)cc1 (stereo not drawn) [Compound A26, Trans-4-((4-(2-(1-(phenylsulfonyl))indolin-5-yl)cyclopropylamino)methyl)piperidin-1-yl) methyl)benzoic acid]	190 to 192	461 ± 31.9				
O=C(O)c1ccc(CN2CCC(CN[C@@H]3C[C@H]3c3ccccc3)CC2)cc1 [GSK2879552, GSK-2879552, reference compound]		404 ± 30.8	> 20000	1810	> 100	> 100
